{"source": "BindingDB's records for doi:10.1021/jm00099a007", "about": "(Merck Research Laboratories, 1992)", "target": "T1, Gag-Pol polyprotein [588-1027]/[588-1147] (Human immunodeficiency virus 1, UniProt P04585)", "T1 construct": "588-1027; 588-1147", "test": "HIV-1 RT Assay"}
{"smiles": "O=c1[nH]c2ccccc2cc1NCc1ccc2ccccc2c1", "note": "[3-[(naphthalen-2-ylmethyl)amino]-1,2-dihydroquinolin-2-one]", "values": [{"measurement": "IC50", "value": "> 300", "unit": "µM"}]}
